From patent US4259235A, “Tricyclic nitrogenous compounds having string plant growth regulating properties” (BASF Aktiengesellschaft, priority 1977, dated 1981)
Like-named read-outs stand apart in the source and are kept apart here.

Legend:
potted vines = experiment: Tolerance by potted vines in greenhouse; spray application; assay type: in vivo; conditions: for Potted vines - leaf damage: 4.0 and 8.0 kg/ha
Procedure: (§1) Plastic flowerpots having a volume of 300 cm^3 were filled with a sandy loam and the test plants placed therein (either as seed, as vegetatively reproduced species, or as potted plants, e.g., vines). For preemergence treatment, the active ingredients were suspended or emulsified in water as vehicle and sprayed onto the surface of the soil immediately after sowing by means of finely distributing nozzles. The potted vines were treated by spraying them with the correspondingly diluted liquor. For postemergence treatment, the agents were, as stated above, sprayed in water onto the leaves of the test plants, some liquor also falling onto the soil. In some special cases, solid active ingredients were first dissolved in dimethylformamide and then applied in a total liquor amount of 400 liters of water per hectare. For the postemergence treatment, the plants were first grown to a height of from 3 to 10 cm before being treated. With grasses, the first growth was cut, and the new growth treated 2 to 3 days after cutting. The temperature requirements of the plants were taken into account by placing them in cooler or warmer sections of the greenhouse. The experiments were run for from 4 to 6 weeks, during which time the plants were tended and their reaction to the various treatments was assessed.
(§2) The application rates are given in kg/ha of active ingredient, regardless of the method of application and the amount of water used.
(§3) A 0 to 100 scale was used for the evaluation, 0 denoting normal emergence or no damage (or no inhibition), and 100 denoting non-emergence or complete destruction of the plants. A distinction should be made in the influence on growth between desired changes without any appreciable disadvantageous phytotoxic effects (e.g., purely growth-regulating effects) and those of a phytotoxic herbicical character.

Poa pratensis = experiment: Growth inhibition in lawns, preemergence treatment in the greenhouse; assay type: in vivo
Procedure: as §1, §2, §3

Sinapis alba = experiment: Herbicidal action, pre- and postemergence application in the greenhouse; assay type: in vivo; conditions: post-emergence, read-out: % damage
Procedure: as §1, §2, §3

Lolium mult. = experiment: as above; assay type: in vivo; conditions: Lolium, post-emergence, read-out: % damage
Procedure: as §1, §2, §3

Mentha piper. = experiment: as above; assay type: in vivo; conditions: post-emergence; 3.0 kg/ha POST; read-out: % damage
Procedure: as §1, §2, §3

Ipom. spp. = experiment: as above; assay type: in vivo, Ipomoea spp.; conditions: Ipomoea, post-emergence; 3.0 kg/ha POST; read-out: % damage
Procedure: as §1, §2, §3

Galium apar. = experiment: as above; assay type: in vivo, Galium aparine; conditions: post-emergence, read-out: % damage
Procedure: as §1, §2, §3

| SMILES | pest or weed control at 3000 g/ha (Lolium mult.; 3.0 kg/ha POST) [%] | pest or weed control at 3000 g/ha (Mentha piper.) [%] | pest or weed control at 3000 g/ha (Ipom. spp.) [%] | pest or weed control at 3000 g/ha (Galium apar.; 3.0 kg/ha POST) [%] | pest or weed control at 3000 g/ha (Lolium mult.; 3.0 kg/ha PRE) [%] | pest or weed control at 3000 g/ha (Sinapis alba; 3.0 kg/ha PRE) [%] | other results |
| --- | --- | --- | --- | --- | --- | --- | --- |
| CCNc1nc(Cl)nc(NCC)n1 |  |  |  |  |  |  | Potted vines - leaf damage (potted vines): chlorotic yellow- ing, necroses; Change in shoot growth (potted vines; 4.0 kg/ha): 17.3 cm; Change in shoot growth (potted vines; 8.0 kg/ha): 10.3 cm |
| N#Cc1c(Cl)cccc1Cl |  |  |  |  |  |  | Potted vines - leaf damage (potted vines): slight chlorosis; Change in shoot growth (potted vines; 4.0 kg/ha): 15.3 cm; Change in shoot growth (potted vines; 8.0 kg/ha): 15.7 cm |
| [O-][N+]1=NC2C3CC(C4C3N4c3ccc(Br)cc3)C21 (centres unmarked) |  |  |  |  |  |  | Growth after emergence, remark (Poa pratensis; 0.5 to 4.0 kg/ha): very short growth overall; grass compact; inhibition at 500 g/ha (Poa pratensis; Poa pratensis, pre-emergence, 0.5 kg/ha, read-out: % growth inhibition after emergence): 50%; inhibition at 1000 g/ha (Poa pratensis; Poa pratensis, pre-emergence, 1.0 kg/ha, read-out: % growth inhibition after emergence): 60%; inhibition at 2000 g/ha (Poa pratensis; Poa pratensis, pre-emergence, 2.0 kg/ha, read-out: % growth inhibition after emergence): 60%; inhibition at 4000 g/ha (Poa pratensis; Poa pratensis, pre-emergence, 4.0 kg/ha, read-out: % growth inhibition after emergence): 70% |
| BrC1=CC2CC1C1N=NC21 (centres unmarked) |  |  |  |  |  |  | pest or weed control at 3000 g/ha (Sinapis alba; 3.0 kg/ha POST): 100% |
| O=C1NC2C3CC(C(Br)C3Br)C12 (centres unmarked) | 95 | 40 | 95 | 70 |  |  |  |
| [O-][N+]1=NC2C3CC(C(Br)C3Br)C21 (centres unmarked) | 85 | 95 | 60 | 40 | 80 | 80 |  |
| Cc1ccc(NC2C(Cl)C3CC2C2N=NC32)cc1 (centres unmarked) | 100 | 100 | 100 | 75 | 80 | 100 |  |
| CC(=O)OC1C2CC(C3N=NC23)C1Nc1ccc(Br)cc1 (centres unmarked) | 100 | 95 | 85 |  | 80 | 100 | pest or weed control at 3000 g/ha (Galium apar.): 65% |
| ClC1C2CC(C3N=NC23)C1Nc1nccs1 (centres unmarked) | 100 | 100 | 80 | 80 |  |  |  |
